Data as given in patent publication US20060166934A1, “Composition comprising phytosphingosine derivatives for apoptosis induction” (Tae-Yoon Kim, priority 2002, published 2006).
Where two headings read alike, the source gives them in different places.

Assays:
[1] = MTT assay, cytotoxicity in human keratinocyte cell line; format: cell-based; details: human, Cell viability
Summary of the method: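 HaCaT keratinocytes, 1-2×10^4 cells per well in serum-free medium, treated 24 h with phytosphingosine derivatives (1-100 μM, DMSO vehicle). Viability by MTT (2 mg/ml, 4 h), formazan dissolved in DMSO, O.D. read at 540 nm.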

[2] = test system: A431 cells, human skin cancer cell line; experiment: MTT assay, cytotoxicity in human skin cancer cell line; format: cell-based; details: for Cell viability: A431, con = 100, in %
Method: Firstly, the cytotoxicity is measured by the MTT assay. Phytosphingosine (PS), phytosphingosine-HCl (PS-HCl), C6-phytosphingosine (C6-PS), CLA-phytosphingosine (CLA-PS), tetraacetyl phytosphingosine (TAPS), and N-acetyl phytosphingosine (NAPS) are dissolved into DMSO to have the final concentration of 1-100 μM.
In order to study the effects of the compositions of the present invention on the cytotoxicity in the human keratinocyte cell line HaCaT cells, the cell viability is analyzed by the MTT (3-[4,5-dimethylthiazol-2-yl]-2,5-diphenyltetrazolium bromide) assay. HaCaT cells are supplied by Professor N. Fuseng of German Cancer Research in Germany. HaCaT cells are seeded in a density of 1×10^6 cells in a […] and cultured in DMEM (Dulbecco's Modified Eagle Medium) containing 10% fetal bovine serum (FBS, GIBCO), 100 units/ml penicillin, and 100 μg/ml streptomycin for 48 hours. They are treated with trypsin and 1-2×10^4 cells per well are seeded again in a 96-well plate by using a serum-free culture medium, about 3 hours after which they are cultured by treatment with phytosphingosine derivatives. After they are cultured for 24 hours, the MTT reagent is added at a concentration of 2 mg/ml, cultured for 4 hours, suspended in DMSO after removing the culture medium completely in order to measure O.D. at 540 nm. C2-ceramide is used for comparison.
In order to study the effects of the compositions of the present invention on the cytotoxicity in A431 cells, human skin cancer cell line, the MTT assay is used. The method of cell culture and MTT assay are the same as those in the above method. C2-ceramide is used for comparison.

[3] = MTT assay, cytotoxicity in immune cells separated from spleen of mice; format: cell-based; details: BDF, mouse
Method: (§1) The effect of the composition of the present invention on the cytotoxicity in immune cells (T cells, B cells, macrophages, monocytes, etc.) was examined. The spleen was removed from normal mice (BDF) and single cells were obtained from the spleen by mechanical aggregation method. And mononuclear cells containing T cells, B cells, macrophages and monocytes were isolated from single cells by density gradient centrifugation method using Ficoll Hypaque. Briefly, single cells were treated with PBS and overlayed on Ficoll Hypaque and centrifuged at 1500 rpm for 30 min. After centrifugation, the cells around the boundary of the Ficoll-Hapaque were collected and washed three times with PBS. The isolated cells were cultured for 24 hours in the presence of 1, 10, 50 and 100 μM of NAPS, TAPS, and PS to examine the effect of cytotoxicity, i.e. the degree of proliferation of the cells. C2-ceramide was used as control. The medium used in this experiment was RPMI 1640 suplemented with 10% of FBS and 100 μg/ml of penicillin and streptomycin.

[4] = MTT assay, combined treatment with UVB irradiation; format: cell-based, human; details: human, HaCaT cells, HaCaT, read-out: Cell viability
Summary of the method: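 HaCaT cells in PBS irradiated with 200 J/m^2 UVB, then returned to DMEM and treated with test compounds for 24 h. Viability by MTT (2 mg/ml, 4 h), formazan dissolved in DMSO and read at 540 nm.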

[5] = test system: HaCaT cells human keratinocyte cell line; experiment: MTT assay, combined administration with Vit D3 or calcipotriol; format: cell-based
Method: In order to study the synergistic effect in the cytotoxicity when the compositions of the present invention are administered in combination with Vit D3 or calcipotriol, the cell viability is analyzed by MTT assay method in HaCaT cells human keratinocyte cell line.
To HaCaT cells, 1 μM of Vit D3 or calcipotriol, or 10 μM each of NAPS and TAPS, is administered singly or in combination with each other, and they are cultured for 24 hours. And the effects of these drugs on the cytotoxicity according to the single or combined administration are observed by MTT assay. C2-ceramide is used for comparison.

[6] = MTT assay, cytotoxicity in HUVEC; format: cell-based, human; details: human
Summary of the method: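 Primary HUVEC cultured from human umbilical vein; cells in serum-free medium were exposed to phytosphingosine derivatives at final 1–100 μM for 24 h. Viability by MTT (2 mg/ml, 4 h), formazan dissolved in DMSO and read at O.D. 540 nm; C2-ceramide run for comparison.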

HaCaT cells = experiment: Cell cycle by flow cytometric analysis; format: cell-based, human; details: FIG. 8
Method: The effects of the compositions of the present invention on the cell cycle are reviewed. In the flow cytometric analysis, the cells are treated with trypsin according to each time interval, collected and washed with PBS. They are fixed by using 80% ethanol, and propidium iodide and RNase are added to them. Thereafter, the cell cycle is analyzed by using a flow cytometer.

[7] = test system: immune cells (T cells, B cells, macrophages, monocytes) from spleen of mice; experiment: MTT assay, cytotoxicity in immune cells separated from spleen of mice; format: cell-based; details: mouse spleen immune cells, 24 hours, FIG. 2; read-out: IC50 (cytotoxicity)
Method: as §1

## CCCCCCCCCCCCCC[C@@H](O)[C@@H](O)[C@H](CO)NC(C)=O [NAPS, N-acetyl phytosphingosine]
[1]
  viability at 24 h, 1 µM: 103 ± 6.9%
  viability at 24 h, 3 µM: 99 ± 3.5%
  viability at 24 h, 10 µM: 86 ± 2.1%
  viability at 24 h, 30 µM: 17 ± 0.8%
[2]; human, 24 h, 50 μM
  cytotoxicity: 95-98%
[3]
  IC50 at 24 h: ~75 µM
[4]; 1 μM + UVB 200 J/m^2, 24 hours
  viability at 24 h, 1 µM: 27 ± 5.8%
[4]; 1 μM, no UVB, 24 hours
  viability at 24 h, 1 µM: 130 ± 10%
[4]; 3 μM + UVB 200 J/m^2, 24 hours
  viability at 24 h, 3 µM: 17 ± 1.6%
[4]; 3 μM, no UVB, 24 hours
  viability at 24 h, 3 µM: 117 ± 9.7%
[4]; 5 μM + UVB 200 J/m^2, 24 hours
  viability at 24 h, 5 µM: 11 ± 1.3%
[4]; 5 μM, no UVB, 24 hours
  viability at 24 h, 5 µM: 110 ± 14%
[4]; 10 μM + UVB 200 J/m^2, 24 hours
  viability at 24 h, 10 µM: 1 ± 0.1%
[4]; 10 μM, no UVB, 24 hours
  viability at 24 h, 10 µM: 67 ± 12%
[5]; human, 24 h, 10 µM
  Cell viability: 86 ± 2
  cytotoxicity: 14%
[6]
  viability at 24 h, 3.5 µM: 66 ± 7.5%
  viability at 24 h, 7 µM: 51 ± 10.5%
  viability at 24 h, 15 µM: 19 ± 3.4%
  viability at 24 h, 30 µM: 14 ± 0.6%

## tetraacetyl phytosphingosine [TAPS]
[2]; 3 μM
  Cell viability: 113 ± 11.2
[2]; 10 μM
  Cell viability: 83 ± 13.9
[2]; 30 μM
  Cell viability: 12 ± 1.7
[2]; 50 μM
  Cell viability: 5 ± 1.2
HaCaT cells; thereafter up to 24 hours
  G2/M phase: reduced continuously
  sub G1 phase (apoptotic cells): increased relatively
HaCaT cells; up to 12 hours after treating
  G2/M phase: increased relatively
  S phase: reduced
[7]
  IC50: 100 µM
[5]; 10 μM combined application with Vit D3
  cytotoxicity: 66%
[5]; 10 μM combined application with calcipotriol
  cytotoxicity: 64%
[5]; 10 μM combined with Vit D3 (1 μM), 24 hours, HaCaT, in %
  Cell viability: 34 ± 4
[5]; 10 μM combined with calcipotriol (1 μM), 24 hours, HaCaT, in %
  Cell viability: 36 ± 8
[5]; 10 μM single administration
  cytotoxicity: 24%
[5]; 10 μM singly, 24 hours, HaCaT, in %
  Cell viability: 76 ± 2
